Experimental data: PMC9367672, “In vitro differences in toddalolactone metabolism in various species and its effect on cytochrome P450 expression” (Pharmaceutical Biology, 2022)

Experiments:
[1] = Metabolic stability assessment in mouse liver microsomes; type: in vitro ADME; details: pH 7.4, MIMs, CYP incubation system, toddalolactone 20 μM, 0-90 min, read-out: half-life value (T1/2)
Procedure: The CYP reaction system (200 μL) consisted of 0.1 M potassium phosphate buffer (pH 7.4), an NADPH-generating system (1 mM NADPH, 10 mM G-6-P, 1 unit/mL G-6-PD, 4 mM MgCl2), and liver microsomes or recombinant human microsomes (supersomes). Each of the in vitro enzymatic assays using liver microsomes was linear with respect to incubation time and amount of protein. After a pre-incubation at 37 °C for 3 min, the reactions were initiated by adding NADP^+. After incubating for 60 min, the reactions were quenched by adding 200 μL of ice-cold acetonitrile. Samples were centrifuged at 18,000 g for 15 min at 4 °C and 10 μL of supernatant was analyzed using an HPLC system. […]
In the UGT reaction system, liver microsomes were incubated in 200 μL of the reaction system containing 4 mM UDPGA, 5 mM MgCl2, 20 µg/mL alamethicin, and 50 mM Tris-HCl buffer (pH 7.4). […] After centrifugation at 18,000 g for 15 min, 10 μL of the supernatant was analyzed by HPLC.
Toddalolactone (20 μM) was incubated with different liver microsomes, including HLMs, DLMs, PLMs, MLMs, RAMs, RLMs or MIMs in oxidative metabolism and glucuronidation reaction systems. […] The mixtures were centrifuged at 18,000 g for 15 min at 4 °C and then 10 μL of the supernatant was analyzed by HPLC. […]
The peak areas of toddalolactone and its metabolites were detected using a HPLC system (Shimadzu, Kyoto, Japan). […]

[2] = tested on: CYP3A5; test: Western blot of CYP3A5 protein expression in HepG2 cells; type: cell-based; details: 0, 10 and 50 μM, 24 h
Procedure: Hep G2 cells were seeded into 100 mm Petri dishes and treated with different concentrations of toddalolactone (0, 10 and 50 µmol/L) for 24 h. Total protein was extracted using RIPA lysis buffer containing proteinase inhibitor (BestBio, Shanghai, China). After the protein concentration was measured using a bicinchoninic acid (BCA) assay kit (Beyotime, Shanghai, China), samples were electrophoretically transferred to polyvinylidene difluoride (PVDF) membranes. After blocking with TTBS (0.5% Tween 20, 10 mM Tris-HCl, pH 7.5, 150 mM NaCl) containing 5% non-fat milk for 1 h at room temperature, the membrane was incubated with antibodies against β-Actin, CYP1A1, and CYP3A5 overnight at 4 °C. Then, membranes were washed with TBS (10 mM Tris-HCl, pH 7.5, 150 mM NaCl) containing 0.05% Tween 20 three times and further incubated with HRP-conjugated secondary antibodies against rabbit (for β-actin, CYP1A1 and CYP3A5) for 1 h at room temperature.

[3] = Enzyme kinetics of toddalolactone metabolism in monkey liver microsomes (oxidative metabolism and glucuronidation); type: in vitro ADME; details: monkey, liver microsomes, pH 7.4, MLMs, Vmax/Km
Procedure: (§1) The CYP reaction system (200 μL) consisted of 0.1 M potassium phosphate buffer (pH 7.4), an NADPH-generating system (1 mM NADPH, 10 mM G-6-P, 1 unit/mL G-6-PD, 4 mM MgCl2), and liver microsomes or recombinant human microsomes (supersomes). Each of the in vitro enzymatic assays using liver microsomes was linear with respect to incubation time and amount of protein. After a pre-incubation at 37 °C for 3 min, the reactions were initiated by adding NADP^+. After incubating for 60 min, the reactions were quenched by adding 200 μL of ice-cold acetonitrile. Samples were centrifuged at 18,000 g for 15 min at 4 °C and 10 μL of supernatant was analyzed using an HPLC system. NADPH or CYP enzyme sources were not used in the control group to ensure that the metabolic reactions were CYP- and NADPH-dependent. All incubation assays were completed in triplicate. The data are presented as mean ± standard deviation (SD).
(§2) In the UGT reaction system, liver microsomes were incubated in 200 μL of the reaction system containing 4 mM UDPGA, 5 mM MgCl2, 20 µg/mL alamethicin, and 50 mM Tris-HCl buffer (pH 7.4). After pre-incubation at 37 °C for 3 min, UDPGA was added to the mixture to initiate the reactions. The mixtures were incubated at 37 °C for 60 min, followed by the addition of 200 μL of cold methanol to terminate the reactions. After centrifugation at 18,000 g for 15 min, 10 μL of the supernatant was analyzed by HPLC.
(§3) The enzyme kinetics of toddalolactone in oxidative metabolism and glucuronidation were determined by incubating liver microsomes (0.2 mg/mL) or CYPs (15 nM) with different concentrations of toddalolactone (1–200 μM). The kinetic parameters including Km and Vmax were obtained by fitting the experimental data to the Michaelis–Menten equation (Equation (1)), biphasic kinetics equation (Equation (2)), or substrate inhibition equation (Equation (3)) (He et al. [2018]), and the results were graphically represented on Eadie–Hofstee plots. The in vitro intrinsic clearance (CLint) was calculated based on the Vmax/Km ratio. Metabolites were quantified using the standard curve for toddalolactone because of the absence of metabolite standards. All incubations were repeated in three independent experiments. Kinetic constants were expressed with mean ± SD: (1) V=Vmax×[S]/Km+[S] (2) V=Vmax1×[S]/Ks1+[S]+Vmax2×[S]/Ks2+[S] (3) V=Vmax×[S]/Ks+[S]+[S]^2/Ksi where v is the rate of reaction, Vmax is the estimated maximum velocity, [S] is the substrate concentration, and Km is the affinity constant of the substrate; Vmax1 and Vmax2 represent the estimated maximum velocity of the two metabolic phases; Ks1 and Ks2 represent the affinity constants for two metabolic phases; Ks and Ksi are the substrate affinity and inhibition constants, respectively.
(§4) The enzyme kinetics in oxidative metabolism and glucuronidation of toddalolactone were studied, and preliminary experiments were performed to ensure that metabolites were formed in the linear range of both reaction time and microsomal protein concentration. The metabolite with the largest peak area was used to calculate the kinetic parameter values (Km, Vmax and CLint). Based on the results of toddalolactone metabolism in different species, the kinetic parameter values in RLMs, DLMs, MLMs, HLMs, RAMs, MIMs, PLMs, CYP1A1 and CYP3A5 were calculated using P4, P4, P4, P4, P2, P2, P4, P4 and P4 data in oxidative metabolism, respectively. In the glucuronidation reaction, the kinetic parameter values in RLMs, MLMs, HLMs, RAMs and PLMs were calculated using P5, P6, P6, P6 and P5 data, respectively.

[4] = tested on: MLMs; test: as above; type: in vitro ADME; details: MLMs; for V max: toddalolactone 1–200 μM
Procedure: as §1, §2, §3, §4

[5] = P450-catalyzed oxidation, P4 formation
[6] = glucuronide metabolism, P6 formation

Question: With `COc1cc2oc(=O)ccc2c(OC)c1C[C@@H](O)C(C)(C)O` [toddalolactone] as the compound, how does the half-life at 20 μM [1] read?
Answer: 3.92 ± 0.35 h

Question: What about the “protein expression of CYP3A5” value [2] of the same compound?
Answer: did not show any significant change

Question: What about the microsomal CLint [3, 5] of the same compound?
Answer: 0.63 µL/min/mg

Question: And the microsomal CLint [3, 6]?
Answer: 1.21 µL/min/mg

Question: What about the K m [4, 5] of the same compound?
Answer: 255.67 ± 58.29 µM

Question: And the V max [4, 5]?
Answer: 161.4 ± 25.73 pmol/min/mg protein

Question: And the K m [4, 6]?
Answer: 154.51 ± 42.46 µM

Question: What about the V max [4, 6] of the same compound?
Answer: 187.53 ± 27.77 pmol/min/mg protein
